The values below come from patent US20240383923A1, “HETEROARYL DERIVATIVE AND USE THEREOF” (VORONOI INC., priority 2022, published 2024).

This assay relates to BT-474 cancer cells. Put plainly: Inhibition of BT-474 cell proliferation (CellTiter-Glo). Format: cell-based. To be noted: Homo sapiens, BT-474 cells, 120 hours. The protocol: BT-474 cancer cells were cultured by using RPMI-1640 medium containing 20% FBS. The BT-474 cancer cells were seeded to a white clear bottom 96 well plate (Corning) at 5,000 cells per well 48 hours before the BT-474 cancer cells were treated with Example Compounds. Example Compounds were diluted in dimethylsulfoxide (3-fold diluted, total 11 concentrations) and 1 μL each was injected so that the final concentration was 0.2 nM to 10 μM. For the measurement of living cells, the cells were stored at room temperature for 10 minutes using the CellTiter-Glo cell viability reagent (Promega) after a predetermined time (120 hours) after the treatment of Example Compounds, and then the luminescence intensity was measured using a reader (SynergyNeo, Biotek). Each test was repeated three times.
The result value was calculated as a cell growth rate (%) compared to a control group. Graphs were plotted and GI50 values were calculated using the GraphPad Prism version 8.0 program, and the results are shown in Table 18 below.
Background: ATP-based viability assays read luminescence as a measure of living cells.
In general, GI50 refers to the concentration that inhibits growth by half. On to `COc1cc2ncnc(Nc3cc(F)c(Oc4ccc5c(c4)ncn5C)cc3OC)c2cc1NC(=O)/C(F)=C/[C@H]1CCCN1C` [Example 61, (R,Z)-2-fluoro-N-(4-((5-fluoro-2-methoxy-4-((1-methyl-1H-benzo[d]imidazol-5-yl)oxy)phenyl)amino)-7-methoxyquinazolin-6-yl)-3-(1-methylpyrrolidin-2-yl)acrylamide], for which the 50% growth inhibitory concentration (GI50) was no more than 50 nM.
On to `COc1cc2ncnc(Nc3cc(C)c(Oc4ccc5nccnc5c4)cc3OC)c2cc1NC(=O)/C(F)=C/[C@H]1CCCN1C` [Example 63, (R,Z)-2-fluoro-N-(7-methoxy-4-((2-methoxy-5-methyl-4-(quinoxalin-6-yloxy)phenyl)amino)quinazolin-6-yl)-3-(1-methylpyrrolidin-2-yl)acrylamide], for which the GI50 is no more than 50 nM.
The value for `COc1cc2ncnc(Nc3cc(C)c(Oc4ccc5ccccc5c4)cc3OC)c2cc1NC(=O)/C(F)=C/[C@H]1CCCN1C` [Example 64, (R,Z)-2-fluoro-N-(7-methoxy-4-((2-methoxy-5-methyl-4-(naphthalen-2-yloxy)phenyl)amino)quinazolin-6-yl)-3-(1-methylpyrrolidin-2-yl)acrylamide] was no more than 50 nM.
On to `COc1cc2ncnc(Nc3cc(C)c(Oc4ccc5ccccc5c4)cc3OC)c2cc1NC(=O)/C(F)=C\[C@H]1CCCN1C` [Example 65, (R,E)-2-fluoro-N-(7-methoxy-4-((2-methoxy-5-methyl-4-(naphthalen-2-yloxy)phenyl)amino)quinazolin-6-yl)-3-(1-methylpyrrolidin-2-yl)acrylamide], for which the GI50 is no more than 50 nM.
The value for `COc1cc2ncnc(Nc3cc(C)c(Oc4ccc5oc(C)nc5c4)cc3OC)c2cc1NC(=O)/C(F)=C/[C@H]1CCCN1C` [Example 68, (R,Z)-2-fluoro-N-(7-methoxy-4-((2-methoxy-5-methyl-4-((2-methylbenzo[d]oxazol-5-yl)oxy)phenyl)amino)quinazolin-6-yl)-3-(1-methylpyrrolidin-2-yl)acrylamide] was no more than 50 nM.
The value for `COc1cc2ncnc(Nc3cc(C)c(Oc4ccc5c(c4)NC(O)O5)cc3OC)c2cc1NC(=O)/C(F)=C/[C@H]1CCCN1C` (stereo partly drawn) [Example 70, (Z)-2-fluoro-N-(4-((4-((2-hydroxy-2,3-dihydrobenzo[d]oxazol-5-yl)oxy)-2-methoxy-5-methylphenyl)amino)-7-methoxyquinazolin-6-yl)-3-((R)-1-methylpyrrolidin-2-yl)acrylamide] was no more than 50 nM; that for `COc1cc2ncnc(Nc3cc(C)c(Oc4ccn(C)c(=O)c4)cc3OC)c2cc1NC(=O)/C(F)=C\[C@H]1CCCN1C` [Example 71, (R,E)-2-fluoro-N-(7-methoxy-4-((2-methoxy-5-methyl-4-((1-methyl-2-oxo-1,2-dihydropyridin-4-yl)oxy)phenyl)amino)quinazolin-6-yl)-3-(1-methylpyrrolidin-2-yl)acrylamide] was no more than 50 nM.
Then `COc1cc2ncnc(Nc3cc(C)c(Oc4ccc5ncnn5c4)cc3OC)c2cc1NC(=O)/C(F)=C\[C@H]1CCCN1C` [Example 72, (R,E)-N-(4-((4-([1,2,4]triazolo[1,5-a]pyridin-6-yloxy)-2-methoxy-5-methylphenyl)amino)-7-methoxyquinazolin-6-yl)-2-fluoro-3-(1-methylpyrrolidin-2-yl)acrylamide], with no more than 50 nM; and `COc1cc2ncnc(Nc3cc(C)c(Oc4ccc5ncnn5c4)cc3OC)c2cc1NC(=O)/C(F)=C/[C@H]1CCCN1C` [Example 73, (R,Z)—N-(4-((4-([1,2,4]triazolo[1,5-a]pyridin-6-yloxy)-2-methoxy-5-methylphenyl)amino)-7-methoxyquinazolin-6-yl)-2-fluoro-3-(1-methylpyrrolidin-2-yl)acrylamide], with no more than 50 nM.
In the case of `COc1cc2ncnc(Nc3cc(C)c(Oc4cnc5ccnn5c4)cc3OC)c2cc1NC(=O)/C(F)=C\[C@H]1CCCN1C` [Example 79, (R,E)-2-fluoro-N-(7-methoxy-4-((2-methoxy-5-methyl-4-(pyrazolo[1,5-a]pyrimidin-6-yloxy)phenyl)amino)quinazolin-6-yl)-3-(1-methylpyrrolidin-2-yl)acrylamide], the GI50 was no more than 50 nM.
Then `COc1cc2ncnc(Nc3cc(C)c(Oc4cnc5ccnn5c4)cc3OC)c2cc1NC(=O)/C(F)=C/[C@H]1CCCN1C` [Example 80, (R,Z)-2-fluoro-N-(7-methoxy-4-((2-methoxy-5-methyl-4-(pyrazolo[1,5-a]pyrimidin-6-yloxy)phenyl)amino)quinazolin-6-yl)-3-(1-methylpyrrolidin-2-yl)acrylamide], with no more than 50 nM.
Consider `COc1cc2ncnc(Nc3cc(C)c(Oc4ccc5ncsc5c4)cc3OC)c2cc1NC(=O)/C(F)=C\[C@H]1CCCN1C` [Example 81, (R,E)-N-(4-((4-(benzo[d]thiazol-6-yloxy)-2-methoxy-5-methylphenyl)amino)-7-methoxyquinazolin-6-yl)-2-fluoro-3-(1-methylpyrrolidin-2-yl)acrylamide], for which the 50% growth inhibitory concentration (GI50) was no more than 50 nM.
The value for `COc1cc2ncnc(Nc3cc(C)c(Oc4ccc5ncsc5c4)cc3OC)c2cc1NC(=O)/C(F)=C/[C@H]1CCCN1C` [Example 82, (R,Z)—N-(4-((4-(benzo[d]thiazol-6-yloxy)-2-methoxy-5-methylphenyl)amino)-7-methoxyquinazolin-6-yl)-2-fluoro-3-(1-methylpyrrolidin-2-yl)acrylamide] was no more than 50 nM; that for `COc1cc2ncnc(Nc3cc(C)c(Oc4ccc5scnc5c4)cc3OC)c2cc1NC(=O)/C(F)=C\[C@H]1CCCN1C` [Example 84, (R,E)-N-(4-((4-(benzo[d]thiazol-5-yloxy)-2-methoxy-5-methylphenyl)amino)-7-methoxyquinazolin-6-yl)-2-fluoro-3-(1-methylpyrrolidin-2-yl)acrylamide] was no more than 50 nM; that for `COc1cc2ncnc(Nc3cc(C)c(Oc4ccc5c(c4)OCO5)cc3OC)c2cc1NC(=O)/C(F)=C\[C@H]1CCCN1C` [Example 85, (R,E)-N-(4-((4-(benzo[d][1,3]dioxol-5-yloxy)-2-methoxy-5-methylphenyl)amino)-7-methoxyquinazolin-6-yl)-2-fluoro-3-(1-methylpyrrolidin-2-yl)acrylamide] was no more than 50 nM.
The value for `COc1cc2ncnc(Nc3cc(C)c(Oc4ccc5c(c4)OCO5)cc3OC)c2cc1NC(=O)/C(F)=C/[C@H]1CCCN1C` [Example 86, (R,Z)—N-(4-((4-(benzo[d][1,3]dioxol-5-yloxy)-2-methoxy-5-methylphenyl)amino)-7-methoxyquinazolin-6-yl)-2-fluoro-3-(1-methylpyrrolidin-2-yl)acrylamide] was no more than 50 nM; that for `COc1cc2ncnc(Nc3cc(C)c(Oc4ccc5cccnc5c4)cc3OC)c2cc1NC(=O)/C(F)=C/[C@H]1CCCN1C` [Example 87, (R,Z)-2-fluoro-N-(7-methoxy-4-((2-methoxy-5-methyl-4-(quinolin-7-yloxy)phenyl)amino)quinazolin-6-yl)-3-(1-methylpyrrolidin-2-yl)acrylamide] was no more than 50 nM; that for `COc1cc2ncnc(Nc3cc(C)c(Oc4ccc5cccnc5c4)cc3OC)c2cc1NC(=O)/C(F)=C\[C@H]1CCCN1C` [Example 88, (R,E)-2-fluoro-N-(7-methoxy-4-((2-methoxy-5-methyl-4-(quinolin-7-yloxy)phenyl)amino)quinazolin-6-yl)-3-(1-methylpyrrolidin-2-yl)acrylamide] was no more than 50 nM.
Then `COc1cc2ncnc(Nc3cc(C)c(Oc4ccc5cnn(C)c5c4)cc3OC)c2cc1NC(=O)/C(F)=C\[C@H]1CCCN1C` [Example 89, (R,E)-2-fluoro-N-(7-methoxy-4-((2-methoxy-5-methyl-4-((1-methyl-1H-indazol-6-yl)oxy)phenyl)amino)quinazolin-6-yl)-3-(1-methylpyrrolidin-2-yl)acrylamide], with no more than 50 nM.
Take `COc1cc2ncnc(Nc3cc(C)c(Oc4ccc5cnn(C)c5c4)cc3OC)c2cc1NC(=O)/C(F)=C/[C@H]1CCCN1C` [Example 90, (R,Z)-2-fluoro-N-(7-methoxy-4-((2-methoxy-5-methyl-4-((1-methyl-1H-indazol-6-yl)oxy)phenyl)amino)quinazolin-6-yl)-3-(1-methylpyrrolidin-2-yl)acrylamide]: the GI50 was no more than 50 nM.
On to `COCCOc1cc2ncnc(Nc3cc(C)c(Oc4ccn5ncnc5c4)cc3OC)c2cc1NC(=O)/C(F)=C\[C@H]1CCCN1C` [Example 94, (R,E)-N-(4-((4-([1,2,4]triazolo[1,5-a]pyridin-7-yloxy)-2-methoxy-5-methylphenyl)amino)-7-(2-methoxyethoxy)quinazolin-6-yl)-2-fluoro-3-(1-methylpyrrolidin-2-yl)acrylamide], for which the GI50 was no more than 50 nM.
`COc1cc(Oc2ccn3ncnc3c2)c(C)cc1Nc1ncnc2cc(OC3CCOC3)c(NC(=O)/C(F)=C/[C@H]3CCCN3C)cc12` (stereo partly drawn) [Example 97, (Z)—N-(4-((4-([1,2,4]triazolo[1,5-a]pyridin-7-yloxy)-2-methoxy-5-methylphenyl)amino)-7-((tetrahydrofuran-3-yl)oxy)quinazolin-6-yl)-2-fluoro-3-((R)-1-methylpyrrolidin-2-yl)acrylamide]: the GI50 is no more than 50 nM.
The value for `COc1cc(Oc2ccn3ncnc3c2)c(C)cc1Nc1ncnc2cc(OC(F)F)c(NC(=O)/C(F)=C/[C@H]3CCCN3C)cc12` [Example 98, (R,Z)—N-(4-((4-([1,2,4]triazolo[1,5-a]pyridin-7-yloxy)-2-methoxy-5-methylphenyl)amino)-7-(difluoromethoxy)quinazolin-6-yl)-2-fluoro-3-(1-methylpyrrolidin-2-yl)acrylamide] was no more than 50 nM.
